Results reported in US20260250320A1, “LIPIDATED PEPTIDE INHIBITORS OF INTERLEUKIN-23 RECEPTOR” (Janssen Pharmaceutica NV, priority 2023, published 2026).
pIC50: −log10 of the molar value. *1 amine or outer side, *2 acyl side, *3 side chain or, on linkers, in order; H or OH if unused. Where a SMILES comes first, the peptide text is derived from it. Bridges are numbered along the chain shown (N, C = ends). Side-chain parts run from the residue outwards. [ ]: non-standard residue; d: D form. The star is where a group is joined. ξ: configuration not given here. X36 = C[N+](C)(C)CCOCCOCCC(=O)C[C@H](CCCCCC(=O)COCCOCCNC(=O)COCCOCCNC(=O)CC[C@H](NC(=O)CCCCCCCCCCCCCCCCC(=O)O)C(=O)O)C(=O)*; X41 = C[N+](C)(CCCCC*)CCOCCOCCNC(=O)COCCOCCCC(=O)CC[C@H](CC(=O)CCCCCCCCCCCCCCCCC(=O)O)C(=O)O; Me3N+(CH2)2O(CH2)2O(CH2)2CO = C[N+](C)(C)CCOCCOCCC(=O)*; CH2CH2OCH2CH2OCH2CH2NMe3+ = C[N+](C)(C)CCOCCOCC*; Trp(7-Me) = Cc1cccc2c(C[C@H](N)C(=O)O)c[nH]c12; d(γGlu) = O=C(O)[C@@H](CCC(=O)[*:2])N[*:1]; C18 diacid = O=C(O)CCCCCCCCCCCCCCCCC(=O)*; γGlu = O=C(O)[C@H](CCC(=O)[*:2])N[*:1]; 2Nal = N[C@@H](Cc1ccc2ccccc2c1)C(=O)O; AEF = NCCOc1ccc(C[C@H](N)C(=O)O)cc1; X26 = C[N+](C)(CCN[*:1])CC(=O)[*:2]; X2 = C[N+](C)(C)C[C@@H](CC(=O)O)N*; 3Pal = N[C@@H](Cc1cccnc1)C(=O)O; Lys(Me) = CNCCCC[C@H](N)C(=O)O; Pen = CC(C)(S)[C@H](N)C(=O)O; Suc = O=C(CCC(=O)[*:2])[*:1]; Thp = NC1(C(=O)O)CCOCC1; X1 = C[N+](C)(C)CCCCC*; AEEA = NCCOCCOCC(=O)O; ξK = NCCCCC(N)C(=O)O; Sar = CNCC(=O)O

Key:
IL-23R = target: T1, IL-23R (Homo sapiens, UniProt Q5VWK5); assay: IL23R Reporter Assay; type: cell-based; conditions: HEK293 cells containing IL-23R, IL-12Rβ1 and STAT-inducible firefly luciferase reporter; 10 ng/mL IL-23 (EC90); 5 h
T1 construct: HEK293 cells containing IL-23R, IL-12Rβ1 and a firefly luciferase reporter gene driven by a STAT-inducible promoter (Promega); host or cells: HEK293
T1 sequence (Q5VWK5 24-629): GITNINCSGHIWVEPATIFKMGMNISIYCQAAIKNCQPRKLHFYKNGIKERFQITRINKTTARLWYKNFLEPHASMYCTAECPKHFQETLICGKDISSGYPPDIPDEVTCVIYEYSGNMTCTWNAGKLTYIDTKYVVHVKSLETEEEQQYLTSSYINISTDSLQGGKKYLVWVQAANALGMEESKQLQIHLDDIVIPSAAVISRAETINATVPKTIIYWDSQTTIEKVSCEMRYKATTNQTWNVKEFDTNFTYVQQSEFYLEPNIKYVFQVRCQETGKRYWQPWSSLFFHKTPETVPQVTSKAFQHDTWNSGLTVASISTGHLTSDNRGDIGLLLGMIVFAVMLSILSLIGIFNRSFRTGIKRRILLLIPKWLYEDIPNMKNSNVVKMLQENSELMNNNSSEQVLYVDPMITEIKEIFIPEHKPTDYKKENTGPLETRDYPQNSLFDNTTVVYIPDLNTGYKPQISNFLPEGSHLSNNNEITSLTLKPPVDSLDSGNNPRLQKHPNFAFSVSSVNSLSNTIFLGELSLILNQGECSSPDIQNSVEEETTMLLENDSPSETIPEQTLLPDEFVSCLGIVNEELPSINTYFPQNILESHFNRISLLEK
Method in brief: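 HEK293 cells carrying IL-23R, IL-12Rβ1 and a STAT-driven firefly luciferase reporter (4000 cells/well) received compound, then 10 ng/mL IL-23 solution (EC90), and were incubated for 5 h at 37° C. BioGlo luminescence was normalised to IL-23 alone (0%) and 30 μM control inhibitor (100%). IC50 came from a 4-parameter Hill fit.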

[1] = tested on: IL-23-stimulated phosphorylated STAT3 in peripheral blood mononuclear cells (PBMCs); assay: PBMC pSTAT3 Assay; type: cell-based; conditions: PBMCs from healthy donors; 30 min preincubation with peptide; IL-23 5 ng/mL for 30 min; phospho-STAT3 by MSD
Method in brief: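 Healthy-donor PBMCs expanded 4 days on anti-CD3 with 100 ng/mL IL-1β, starved ~4 h in RPMI-0.1% BSA, preincubated 30 min with peptide, then stimulated 30 min at 37 °C with 5 ng/mL IL-23. Lysate pSTAT3 measured by MSD phospho-STAT panel; IC50 derived.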

SMILES	pIC50 (IL-23R)	pIC50 [1]
Cc1cccc2c(C[C@@H]3NC(=O)[C@H]([C@@H](C)O)NC(=O)[C@H](CC(N)=O)NC(=O)[C@@H](NC(=O)[C@@H](CCCNC(=N)N)NC(=O)CCOCCOCC[N+](C)(C)C)C(C)(C)SSC(C)(C)[C@@H](C(=O)N[C@@H](Cc4ccc(OCCN)cc4)C(=O)N[C@@H](Cc4ccc5ccccc5c4)C(=O)NC4(C(=O)N[C@@H](CCC(=O)O)C(=O)N[C@@H](CC(N)=O)C(=O)N[C@@H](Cc5cccnc5)C(=O)N(C)CC(N)=O)CCOCC4)NC(=O)[C@H](CCCCNC(=O)COCCOCCNC(=O)COCCOCCNC(=O)CC[C@H](NC(=O)CCCCCCCCCCCCCCCCC(=O)O)C(=O)O)NC3=O)c[nH]c12 [compound 72, cPEG3aCO-r-Pen(3)-N-T-7MeW-K(PEG2PEG2C18OH)-Pen(3)-AEF-2Nal-THP-E-N-3Pya-Sar-CONH2] ({Me3N+(CH2)2O(CH2)2O(CH2)2CO}-[dR][Pen]NT[Trp(7-Me)]K([AEEA-AEEA-γGlu-C18 diacid])[Pen][AEF][2Nal][Thp]EN[3Pal][Sar]-NH2; disulfide 2-7)	6.30 to 7.30	> 9.30
CC(=O)NCCCC[C@H](NC(=O)C1(NC(=O)[C@H](Cc2ccc3ccccc3c2)NC(=O)[C@H](Cc2ccc(OCCN)cc2)NC(=O)[C@@H](NC(=O)[C@@H](N)CCCCNC(C)=O)C(C)(C)SSC(C)(C)[C@H](NC(C)=O)C(=O)N[C@@H](CC(N)=O)C(=O)N[C@H](C(=O)N[C@H](Cc2c[nH]c3c(C)cccc23)C(C)=O)[C@@H](C)O)CCOCC1)C(=O)N[C@@H](CC(N)=O)C(=O)N[C@@H](Cc1cccnc1)C(=O)N(C)CC(=O)N[C@@H](CCCCNC(=O)COCCOCCN(C)C(=O)COCCOCCN(C)C(=O)CC[C@@H](C(=O)O)N(C)C(=O)CCCCCCCCCCCCCCCCCc1nnn[nH]1)C(N)=O [compound 2, MeCO-Pen(3)-N-T-7MeW-K(Ac)-Pen(3)-AEF-2Nal-THP-K(Ac)-N-3Pya-Sar-K(PEG2NMePEG2NMegENMeC18Tetrazole)-CONH2]	6.30 to 7.30	> 9.30
CC(=O)N(C)CCCC[C@@H]1NC(=O)[C@H](Cc2c[nH]c3c(C)cccc23)NC(=O)[C@H]([C@@H](C)O)NC(=O)[C@H](CC(=O)N(C)C)NC(=O)[C@@H](NC(=O)[C@@H](CCCCCC(=O)COCCOCCNC(=O)COCCOCCNC(=O)CC[C@H](NC(=O)CCCCCCCCCCCCCCCCC(=O)O)C(=O)O)CC(=O)CCOCCOCC[N+](C)(C)C)C(C)(C)SSC(C)(C)[C@@H](C(=O)N[C@@H](Cc2ccc(OCCCCC[N+](C)(C)C)cc2)C(=O)N[C@@H](Cc2ccc3ccccc3c2)C(=O)NC2(C(=O)N[C@@H](CCCCN(C)C(C)=O)C(=O)N[C@@H](CC(N)=O)C(=O)N[C@@H](Cc3cccnc3)C(=O)N(C)CC(=O)N(C)C)CCOCC2)NC1=O [compound 131, cPEG3aCO-k(PEG2PEG2gEC18OH)-Pen(3)-N(N(Me)2)-T-7MeW-K(NMeAc)-Pen(3)-TMAPF-2Nal-THP-K(NMeAc)-N-3Pya-Sar-CON(Me)2] (X36-[Pen]D(NMe2)T[Trp(7-Me)][Lys(Me)](Ac)[Pen]Y(X1)[2Nal][Thp][Lys(Me)](Ac)N[3Pal][Sar]-NMe2; disulfide 1-6)	> 7.30	> 9.30
CC(=O)N(C)CCCC[C@@H]1NC(=O)[C@H](Cc2c[nH]c3c(C)cccc23)NC(=O)[C@H]([C@@H](C)O)NC(=O)[C@H](CC(=O)N(C)C)NC(=O)[C@@H](NC(=O)CCOCCOCC[N+](C)(C)C)C(C)(C)SSC(C)(C)[C@@H](C(=O)N[C@@H](Cc2ccc(OCCCCC[N+](C)(C)CCOCCOCCNC(=O)COCCOCCCC(=O)CC[C@H](CC(=O)CCCCCCCCCCCCCCCCC(=O)O)C(=O)O)cc2)C(=O)N[C@@H](Cc2ccc3ccccc3c2)C(=O)NC2(C(=O)N[C@@H](CCCCN(C)C(C)=O)C(=O)N[C@@H](CC(N)=O)C(=O)N[C@@H](Cc3cccnc3)C(=O)N(C)CC(=O)N(C)C)CCOCC2)NC1=O [compound 144, cPEG3aCO-Pen(3)-N(N(Me)2)-T-7MeW-K(NMeAc)-Pen(3)-TMAPF(PEG2PEG2gEC18OH)-2Nal-THP-K(NMeAc)-N-3Pya-Sar-CON(Me)2] ({Me3N+(CH2)2O(CH2)2O(CH2)2CO}-[Pen]D(NMe2)T[Trp(7-Me)][Lys(Me)](Ac)[Pen]Y(X41)[2Nal][Thp][Lys(Me)](Ac)N[3Pal][Sar]-NMe2; disulfide 1-6)	> 7.30	8.30 to 9.30
CC(=O)NC(CCCCNC(=O)COCCOCCNC(=O)COCCOCCNC(=O)CC[C@@H](NC(=O)CCCCCCCCCCCCCCCCC(=O)O)C(=O)O)C(=O)N[C@@H]1C(=O)N[C@@H](CC(N)=O)C(=O)N[C@@H]([C@@H](C)O)C(=O)N[C@@H](Cc2c[nH]c3c(C)cccc23)C(=O)N[C@@H](CCCCNC(=O)CCC(=O)N[C@H](CC(=O)O)C[N+](C)(C)C)C(=O)N[C@H](C(=O)N[C@@H](Cc2ccc(OCCN)cc2)C(=O)N[C@@H](Cc2ccc3ccccc3c2)C(=O)NC2(C(=O)N[C@@H](CCC(=O)O)C(=O)N[C@@H](CC(N)=O)C(=O)N[C@@H](Cc3cccnc3)C(=O)N(C)CC(N)=O)CCOCC2)C(C)(C)SSC1(C)C (stereo partly drawn) [compound 34, MeCO-k(PEG2PEG2gEC18OH)-Pen(3)-N-T-7MeW-K(d)-Pen(3)-AEF-2Nal-THP-E-N-3Pya-Sar-CONH2] (Ac-[ξK]([AEEA-AEEA-d(γGlu)-C18 diacid])[Pen]NT[Trp(7-Me)]K([Suc-X2])[Pen][AEF][2Nal][Thp]EN[3Pal][Sar]-NH2; disulfide 2-7)	> 7.30	> 9.30
CC(=O)N(C)CCCC[C@@H]1NC(=O)[C@H](Cc2c[nH]c3c(C)cccc23)NC(=O)[C@H]([C@@H](C)O)NC(=O)[C@H](CC(=O)N(C)C)NC(=O)[C@@H](NC(=O)COCCOCCNC(=O)C[N+](C)(C)CCNC(=O)COCCOCCNC(=O)CC[C@H](NC(=O)CCCCCCCCCCCCCCCCC(=O)O)C(=O)O)C(C)(C)SSC(C)(C)[C@@H](C(=O)N[C@@H](Cc2ccc(OCCOCCOCC[N+](C)(C)C)cc2)C(=O)N[C@@H](Cc2ccc3ccccc3c2)C(=O)NC2(C(=O)N[C@@H](CCCCN(C)C(C)=O)C(=O)N[C@@H](CC(N)=O)C(=O)N[C@@H](Cc3cccnc3)C(=O)N(C)CC(=O)N(C)C)CCOCC2)NC1=O [compound 89, HOC18gEPEG2SP6PEG2CO-Pen(3)-N(N(Me)2)-T-7MeW-K(NMeAc)-Pen(3)-APEG3F-2Nal-THP-K(NMeAc)-N-3Pya-Sar-CON(Me)2] ({C18 diacid-γGlu-AEEA}-[X26][AEEA][Pen]D(NMe2)T[Trp(7-Me)][Lys(Me)](Ac)[Pen]Y(CH2CH2OCH2CH2OCH2CH2NMe3+)[2Nal][Thp][Lys(Me)](Ac)N[3Pal][Sar]-NMe2; disulfide 3-8)	> 7.30	> 9.30
CC(=O)N(C)CCCC[C@H](CC(=O)C1(NC(=O)[C@H](Cc2ccc3ccccc3c2)NC(=O)[C@H](Cc2ccc(OCCNC(=O)C[N+](C)(C)CCNC(=O)COCCOCCNC(=O)COCCOCCNC(=O)CC[C@H](NC(=O)CCCCCCCCCCCCCCCCC(=O)O)C(=O)O)cc2)NC(=O)[C@@H]2CCCCC(C)[C@H](NC(=O)CCOCCOCC[N+](C)(C)C)C(=O)N[C@@H](CC(=O)N(C)C)N[C@@H]([C@@H](C)O)C(=O)N[C@@H](Cc3c[nH]c4c(C)cccc34)C(=O)N[C@@H](CCCCN(C)C(C)=O)C(=O)N2)CCOCC1)C(=O)C[C@@H](CC(N)=O)C(=O)N[C@@H](Cc1cccnc1)C(=O)N(C)CC(=O)N(C)C (stereo partly drawn) [compound 154, cPEG3aCO-Pen(3)-N(N(Me)2)-T-7MeW-K(NMeAc)-Pen(3)-AEF(SP6PEG2PEG2gEC18OH)-2Nal-THP-K(NMeAc)-N-3Pya-Sar-CON(Me)2]	> 7.30	> 9.30
CC(=O)NCCCC[C@@H]1NC(=O)[C@H](Cc2c[nH]c3c(C)cccc23)NC(=O)[C@H]([C@@H](C)O)NC(=O)[C@H](CCCCNC(=O)COCCOCCNC(=O)COCCOCCNC(=O)CC[C@H](NC(=O)CCCCCCCCCCCCCCCCC(=O)O)C(=O)O)NC(=O)[C@@H](NC(=O)[C@@H](CCCNC(=N)N)NC(=O)CCOCCOCC[N+](C)(C)C)C(C)(C)SSC(C)(C)[C@@H](C(=O)N[C@@H](Cc2ccc(OCCN)cc2)C(=O)N[C@@H](Cc2ccc3ccccc3c2)C(=O)NC2(C(=O)N[C@@H](CCC(=O)O)C(=O)N[C@@H](CC(N)=O)C(=O)N[C@@H](Cc3cccnc3)C(=O)N(C)CC(N)=O)CCOCC2)NC1=O [compound 55, cPEG3aCO-r-Pen(3)-K(PEG2PEG2gEC18OH)-T-7MeW-K(Ac)-Pen(3)-AEF-2Nal-THP-E-N-3Pya-Sar-CONH2] ({Me3N+(CH2)2O(CH2)2O(CH2)2CO}-[dR][Pen]K([AEEA-AEEA-γGlu-C18 diacid])T[Trp(7-Me)]K(Ac)[Pen][AEF][2Nal][Thp]EN[3Pal][Sar]-NH2; disulfide 2-7)	6.30 to 7.30	> 9.30
